Assay results: patent US6017932A, “Pharmaceutical compositions containing at least one NSAID having increased bioavailability” (priority 1996, dated 2000)
“Also recorded” adds a separate entry of the source. Like-named read-outs stand apart in the source and are kept apart here.

Assays:
[1] = test system: histamine release, neutrophil myeloperoxidase pathway, bradykinin activity, phosphodiesterase type IV and others; settings: in words; cited from earlier work
[2] = cited from earlier work
[3] = cited from earlier work; for effect of Piperine on bio-availability (in words): with Piperine; for mean increase in AUC: formulations with Piperine vs without
COX-II = settings: vs COX-I; cited from earlier work
[4] = test system: renal prostaglandin synthesis; settings: rats; cited from earlier work
[5] = test system: painful inflammatory conditions; settings: cited from earlier work
[6] = rectal, nimesulide 100 and 200 mg; cited from earlier work
plasma proteins = settings: human; cited from earlier work
[7] = Plasma levels of Nimesulide in rats after composition with/without Piperine (Experiment I); format: in vivo, albino rats
Protocol: The rats were housed 5 per cage with food and water provided ad libidum.
On the day of experimentation the rats were randomised into ten batches of 5 rats each. Four groups were formed. Group I consisted of one batch of 5 rats, which was kept as control which received no drug treatment. Group II consisted of four batches of five rats each. […] Rats of batch I from Group II were sacrificed 60 minutes post treatment after Chloroform anaesthesia. Batch 2,3 and 4 were similarly sacrificed at 120 min., 240 min. and 360 min. post treatment respectively. Blood was collected from the rats from the ventricle into heparinised tubes.
Group III consisted of one batch of 5 rats, which received only Piperine at a dose level of 1.0 mg/kg body wt. The animals were sacrificed 160 minutes post treatment after Chloroform anaesthesia. Blood was collected from the rats from the ventricle into heparinised tubes.
Group IV consisted of 4 batches of 5 rats each. […] Rats of batch 1 from Group IV were sacrificed 60 minutes post treatment after Chloroform anaesthesia. Batch 2, 3 and 4 were similarly sacrificed at 120 min., 240 min. and 360 min. post treatment respectively. Blood was collected from the rats from the ventricle into heparinised tubes.
The blood samples were centrifuged at 3700 rpm and the plasma separated. To 1 ml plasma 0.5 ml of HCl was added and then extracted with 2 ml of benzene. Extracted benzene was evaporated in a water bath at 95° C. and reconstituted with 100 μl of mobile phase and 10 μl was injected into the HPLC.
Waters HPLC fitted with C8 μ Bondapack was used along with Waters UV-Vis detector (254 nm). Acetonitrile 50% with 50% Ammonium di-hydrogen Phosphate (0.01M) in double distilled, filtered (0.22 μ) water was used as the mobile phase.
Unpaired student T test was applied on the data. Level of significance was fixed at p<0.05.

in vivo = settings: rat, plasma, po, 10 mg/kg
Protocol: The single test point pharmacokinetic studies were performed in two groups of rats. […] Rats were sacrificed at 90 minutes. post treatment and blood samples were analysed by HPLC.

yeast-induced fever = settings: rats with yeast-induced fever; cited from earlier work
[8] = relative to other NSAIDs; cited from earlier work
[9] = cited from earlier work; remark: listed apart in the source
[10] = in words; cited from earlier work
[11] = oral, 50 to 200 mg nimesulide, healthy adult volunteers

Compound: CS(=O)(=O)Nc1ccc([N+](=O)[O-])cc1Oc1ccc(O)cc1 [4-hydroxy-nimesulide]
- other effects [1]: appears to contribute to the anti-inflammatory activity
- accumulation ([2]; patients with moderate renal impairment): Slight accumulation

Compound: CC[C@@H](CO)NCCN[C@@H](CC)CO [Ethambutol]
- effect of Piperine on bio-availability (in words) [3]: increase bio-availability

Compound: NNC(=O)c1ccncc1 [Isoniazid]
- mean increase in AUC [3]: 131%

Compound: COc1ccc2cc(CCC(C)=O)ccc2c1 [Nabumetone]
- COX-II selectivity (in words) (COX-II): selectively inhibit the detrimental COX-II

Compound: CS(=O)(=O)Nc1ccc([N+](=O)[O-])cc1Oc1ccccc1 [Nimesulide, N-(4-nitro, 2-phenoxyphenyl) methanesulfonamide]
- other effects [1]: appears to exert its effects on histamine release, the neutrophil myeloperoxidase pathway, bradykinin activity, tumour necrosis factor-a release, cartilage degradation, metalloprotease synthesis, phosphodiesterase type IV inhibition, platelet aggregation and synthesis of platelet activating factor
- effect on renal prostaglandin synthesis [4]: little effect on renal prostaglandin synthesis in rats
- onset of analgesia ([5]; human, in vivo): rapid onset of analgesia
- efficacy in cancer pain ([5]; in words): highly efficaceous in cancer pain
- clinical efficacy vs placebo ([5]; oral mostly 200 mg/day or rectal 400 mg/day): more effective than placebo
- clinical efficacy vs other NSAIDs ([5]; vs piroxicam, ketoprofen, naproxen, etodolac, mefenamic acid, diclofenac and others): at least as effective as therapeutic dosages of other NSAIDs
- peak serum concentrations [6]: 2.14 to 2.32 mg/L
- time to peak serum concentration [6]: 3 to 4.58 h
- pharmacokinetic profile in special populations ([2]; children, elderly volunteers, moderately impaired renal function (creatinine clearance 1.8 to 4.8 L/h)): not significantly altered
- bound to plasma proteins (plasma proteins): 99%
- Concentration of the drug in plasma ([7]; 240 min, Nimesulide alone 1.8 mg/kg): 4.6 ± 1.4 kg/mL
- concentration at 1 h ([7]; rat, plasma, po, 1.8 mg/kg): 5800 ± 1700 µg/mL
- concentration at 2 h ([7]; rat, plasma, po, 1.8 mg/kg): 7900 ± 2300 µg/mL
- concentration at 4 h ([7]; rat, plasma, po, 1.8 mg/kg): 4600 ± 1400 µg/mL
- concentration at 6 h ([7]; rat, plasma, po, 1.8 mg/kg): 2200 ± 1100 µg/mL
- concentration at 1.5 h (in vivo): 8820 µg/mL
- antipyretic potency (yeast-induced fever): superior antipyretic potency to indomethacin, ibuprofen, aspirin and paracetamol (acetaminophen)
- ulcerogenicity / gastric tolerance [8]: less ulcerogenic than aspirin, indomethacin, naproxen, piroxicam and ibuprofen; also recorded: better gastric tolerance than other commonly used NSAIDs
- effect of food on absorption ([9]; concomitant administration of food): may decrease the rate, but not the extent, of absorption
- apparent volume of distribution ([9]; following oral administration): 0.19 to 0.35 L/kg
- dose excreted unchanged in the urine ([9]; human, in vivo, po): 1 to 3%
- biotransformation ([9]; in words): almost completely biotransformed into 4-hydroxy-nimesulide
- oral drug absorption ([9]; in words): nearly complete
- peak serum concentrations [9, 11]: 1.98 to 9.85 mg/L
- time to peak serum concentration [9, 11]: 1.22 to 3.17 h
- elimination half-life ([9]; parent compound): 1.56 to 4.95 h

Compound: O=C(/C=C/C=C/c1ccc2c(c1)OCO2)N1CCCCC1 [Piperine, (E, E) 1-[5-(1,3-benzodioxyl-5-yl)-1-oxo-2,4-pentadenyl] piperidine]
- solubility / insolubility [10]: soluble in benzene, chloroform, ether, ethyl acetate, dichloromethane, alcohol, acetic acid and insoluble in water, pet. ether
- Plasma levels of Nimesulide ([7]; 120 min. post treatment, Nimesulide 1.8 mg/kg with or without Piperine 1.0 mg/kg, oral, rats): Nil

Compound: NC(=O)c1cnccn1 [Pyrazinamide]
- mean increase in AUC [3]: 36%

Compound: CO[C@H]1/C=C/O[C@@]2(C)Oc3c(C)c(O)c4c(O)c(c(/C=N/N5CCN(C)CC5)c(O)c4c3C2=O)NC(=O)/C(C)=C\C=C\[C@H](C)[C@H](O)[C@@H](C)[C@@H](O)[C@@H](C)[C@H](OC(C)=O)[C@@H]1C [Rifampicin]
- mean increase in AUC [3]: 37.6%

Compound: CCCCNC(=O)NS(=O)(=O)c1ccc(C)cc1 [tolbutamide]
- effect of Piperine on bio-availability (in words) [3]: no effect on enhancing the bio-availability
